Experimental data as given in US20080261866A1, “Compositions Comprising Glycosaminoglycan and Nonsteroidal Anti-Inflammatory Drug” (PANACEA BIOTEC LTD., priority 2005, published 2008).

What was measured:
[1] = tested on: diclofenac-induced gastric ulcers; test: Diclofenac-induced acute gastric ulcers in rats; details: Single oral administration of diclofenac free acid 100 mg/kg, fasted animals
Description: Wistar rats of either sex were fasted overnight and weighing 170-200 g at the time of testing were used throughout. […] A dosing volume of 10 ml/kg was used for each sequential solution or suspension. All doses were coded and the test was performed under a code not known to the observer.
The ulcers were induced as described by Chan et al. (1995). In brief, overnight fasted animals were weighed and randomly divided into four groups. […] The number of ulcers was identified using 10× magnifying lens, counted, multiplied by respective score, and summed up for each animal. The mean score as ulcer index in each group was calculated as mentioned below.

[2] = tested on: Indomethacin-induced gastric ulcers; test: Indomethacin-induced acute gastric ulcers in rats; format: in vivo, Wistar rats; details: Single oral administration of indomethacin 20 mg/kg, fasted animals
Description: The observed unexpected gastroprotective effect of Chondroitin sulphate is evidenced by test conducted in rats. Wistar rats of either sex were procured from Central Animal House facility, Panacea Biotec Ltd., India. The animals were fasted overnight and those weighing between 150-170 gms at the time of testing were used throughout. […] In brief, overnight fasted animals were administered orally with 20 mg/kg of Indomethacin on the day of experimentation. […] [table]

Row | SMILES | Gastric damage (in words) [1] | Gastric damage (in words) [2]
1 | O=C(O)Cc1ccccc1Nc1c(Cl)cccc1Cl [Diclofenac, Diclofenac free acid] | severe gastric damage | –
2 | COc1ccc2c(c1)c(CC(=O)O)c(C)n2C(=O)c1ccc(Cl)cc1 [Indomethacin] | – | severe gastric damage
